TGI data for 24 compounds are collected here from PubChem BioAssay (NCI).

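Following 48 hours of exposure in 96-well plates, responses at five concentrations were used to interpolate endpoints linearly. TGI is the concentration that stops growth completely.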 Where only a bound is given, the exact number is not on record here.

Test in all cases: DTP human tumour cell line panel, 48 h
Assay [1] relates to HL-60(TB) leukemia.
Assay [2] deals with OVCAR-8 ovarian.
The test system of assay [3] is SK-OV-3 ovarian.
Assay [4] concerns T-47D breast.
The subject of assay [5] is UO-31 renal.
For assay [6], the system named is SN12C renal.
Assay [7] concerns NCI-H23 lung.
The test system of assay [8] is DU-145 prostate.
Assay [9] has as its system HCT-116 colon.
Assay [10] concerns EKVX NSCLC.

As a reminder, the TGI is the concentration at which net growth stops. Low values mean more potent growth arrest, high ones less potent growth arrest. With `CC(=O)Nn1c(=S)[nH]c2ccccc21`, the TGI in assay [1], in assay [2], in assay [3], in [4], in assay [5] and in [6] was over 100 µM throughout. Besides, the TGI in assay [7], in assay [8], in assay [9] and in assay [10] was over 100 µM each time.
With `NS(=O)(=O)c1nnc(NC(=O)Nc2ccc(Cl)c(Cl)c2)s1`, the concentration for total growth inhibition (TGI) in assay [1] is over 100 µM; in assay [2], 49.9 µM; in assay [3], 63.4 µM; in [4] it was 55.3 µM; in [5], 85.3 µM; in assay [6] it was 39.7 µM. Further, the TGI in assay [7] is 39.4 µM; in assay [8], over 100 µM; in [9], 42.4 µM; in [10] it was 94.6 µM.
With `NC(=O)C(=Cn1c(=S)[nH]c2ccc([N+](=O)[O-])cc21)C(N)=O`, the TGI in [1], in assay [2], in assay [3], in [4], in assay [5] and in [6] was over 100 µM in each case. Moreover, the total growth inhibition concentration (TGI) in assay [7], in assay [8], in assay [9] and in [10] was over 100 µM throughout.
In the case of `CC(=O)Nc1nc(NC(C)=O)c2[nH]c(CO)nc2n1`, the total growth inhibition concentration (TGI) in assay [1], in assay [2], in assay [3], in assay [4], in assay [5] and in [6] was over 100 µM throughout. Further, the total growth inhibition concentration (TGI) in assay [7], in assay [8], in [9] and in assay [10] was over 100 µM each time.
As to `COc1ccc(-c2[nH]c3c4c(nc5c(c24)C(=O)CC(C)(C)C5)CC(C)(C)C3)cc1`, the concentration for total growth inhibition (TGI) in assay [1], in [2], in [3], in assay [4], in [5] and in assay [6] was over 100 µM throughout. Also, the TGI in [7], in [8], in [9] and in assay [10] was over 100 µM each time.
For the compound `COc1cccc(Nc2nc(-c3cccs3)nc3cc(OC)c(OC)cc23)c1`, the total growth inhibition concentration (TGI) in assay [1] is over 100 µM; in [2], 78.5 µM; in assay [3] it was over 100 µM; in assay [4], over 100 µM; in [5], over 100 µM; in [6], 53.8 µM. The TGI in assay [7] is 89.7 µM; in assay [8], over 100 µM; in assay [9], 54 µM; in assay [10], over 100 µM.
On to `S=C(N/N=C(/c1ccccc1)c1ccccn1)N(Cc1ccccn1)Cc1ccccn1`, for which the concentration for total growth inhibition (TGI) was over 100 µM in assay [1]; 1.13 µM in assay [2]; 1.66 µM in assay [3]; 2.82 µM in assay [4]; 1.65 µM in assay [5]; 3.47 µM in [6]. Besides, the concentration for total growth inhibition (TGI) in assay [7] came to 1.57 µM; in [8], 4.42 µM; in [9], 1.59 µM; in [10], 1.7 µM.
`Nc1nccc(-c2c[nH]c3cc(Br)ccc23)n1`: the TGI is over 100 µM in assay [1]; over 100 µM in [2]; 99.4 µM in [3]; over 100 µM in assay [4]; 39 µM in assay [5]; 49.8 µM in assay [6]. For the same compound, the TGI in assay [7] is 88.4 µM; in [8], over 100 µM; in assay [9] it was 40.2 µM; in [10] it was 9.15 µM.
As for `Cc1ccnc(NS(=O)(=O)c2ccc(N=[N+]=[N-])cc2)n1`, the TGI in assay [1] is over 86.3 µM; in [2], over 100 µM; in assay [3] it was over 100 µM; in assay [4], over 100 µM; in assay [5], over 100 µM; in assay [6] it was over 100 µM. Moreover, the TGI in assay [7], in assay [8], in assay [9] and in assay [10] was over 100 µM in each case.
As to `Cc1cc(-c2nc3ccc(F)cc3s2)ccc1NC(=O)[C@H](C)N`, the TGI in assay [1] is 7.45 µM; in assay [2], 27.3 µM; in assay [3], 28.2 µM; in assay [4] it was over 37.4 µM; in [5], 14 µM; in assay [6], 28.7 µM. Also, the TGI in [7] came to 26.1 µM; in assay [8], 26 µM; in [9] it was 11.4 µM; in assay [10] it was 23 µM.
Consider `C[C@]12CCC3C4=C(CCC3C1CCC2=O)C(=O)[C@H]1O[C@H]1C4=O` (stereo not given in full), for which the TGI was 7.93 µM in assay [1]; 5.59 µM in assay [2]; 28 µM in [3]; 2.78 µM in assay [4]; 5.1 µM in assay [5]; 7.71 µM in [6]. The concentration for total growth inhibition (TGI) in [7] was 8.4 µM; in [8], 8.41 µM; in assay [9] it was 2.16 µM; in [10], 27.7 µM.
Turning to `COC(=O)C1=C(C(=O)OC)SC(=C2SCSC3=C2SC(C(=O)OC)=C(C(=O)OC)C32SC3=C(CCCC3)S2)S1`, the total growth inhibition concentration (TGI) in assay [1], in assay [2], in [3], in assay [4], in [5] and in assay [6] was over 100 µM each time. Further, the TGI in [7], in assay [8], in assay [9] and in assay [10] was over 100 µM in each case.
For `CCOC(=O)c1c(CN2CCCC2)n(-c2ccccc2)c2cc(Br)c(O)cc12`, the concentration for total growth inhibition (TGI) was 27.5 µM in [1]; 49.1 µM in assay [2]; 66.5 µM in assay [3]; 47 µM in assay [4]; 24.5 µM in assay [5]; 30.2 µM in assay [6]. Also, the TGI is 42.8 µM in assay [7], 39.5 µM in [8], 30.3 µM in assay [9] and 39.7 µM in [10].
As for `O=C(/C=C/c1ccccc1)C[C@@H](O)C[C@@H]1CC=CC(=O)O1`, the TGI in assay [1] was found to be 5.06 µM; in assay [2] it was 18.9 µM; in assay [3], 38.7 µM; in assay [4], 42.2 µM; in assay [5], 28.9 µM; in assay [6], 25.2 µM. In addition, the TGI in assay [7] was 28.6 µM; in assay [8], over 60.5 µM; in assay [9] it was 6.38 µM; in [10], 73.1 µM.
With `CCC(=O)NC(Nc1cc(C)on1)(C(F)(F)F)C(F)(F)F`, the TGI in [1], in assay [2], in assay [3], in assay [4], in assay [5] and in assay [6] was over 100 µM throughout. Besides, the TGI in assay [7], in assay [8], in assay [9] and in [10] was over 100 µM throughout.
As to `CC(=O)c1c2c(c3ccccc3c1O)O[C@@H]1OCC[C@H]21`, the concentration for total growth inhibition (TGI) in assay [1], in assay [2], in assay [3], in [4], in assay [5] and in assay [6] was over 100 µM in each case. The total growth inhibition concentration (TGI) in assay [7], in assay [8], in assay [9] and in [10] was over 100 µM in each case.
As to `O=[N+]([O-])c1cc(C=NC23CC4CC(CC(C4)C2)C3)ccc1Cl`, the total growth inhibition concentration (TGI) in assay [1] was 8.28 µM; in assay [2], over 90.9 µM; in assay [3], over 100 µM; in assay [4], 40.8 µM; in assay [5] it was 15.8 µM; in [6] it was 35.2 µM. The TGI in [7] was 42.8 µM; in [8], over 60.4 µM; in assay [9], 19.5 µM; in [10], over 61.8 µM.
Take `C/C(=C\CBr)CCC(Br)C(C)(C)Br` (stereo not given): the total growth inhibition concentration (TGI) in assay [1], in assay [2], in assay [3], in assay [4], in [5] and in assay [6] was over 100 µM throughout. Also, the TGI in assay [7], in assay [8], in assay [9] and in assay [10] was over 100 µM in each case.
In the case of `CCN(CC)C(=S)N/N=C/c1cc([N+](=O)[O-])ccc1O`, the concentration for total growth inhibition (TGI) in assay [1] is 6.08 µM; in assay [2], 45.3 µM; in assay [3] it was 16.3 µM; in [4] it was 39.4 µM; in [5] it was over 100 µM; in assay [6], 25.6 µM. Moreover, the TGI in assay [7] is 28.9 µM; in assay [8] it was over 100 µM; in [9], 12 µM; in assay [10], 78.9 µM.
As to `Cc1cc(Nc2ccc(S(=O)(=O)O)c3cc(S(=O)(=O)O)cc(S(=O)(=O)O)c23)c2ccccc2n1`, the TGI in assay [1], in [2], in assay [3], in [4], in [5] and in assay [6] was over 100 µM each time. In addition, the TGI in assay [7], in [8], in [9] and in [10] was over 100 µM in each case.
With `N#CC(NCc1cccc(CNC(C#N)c2ccccc2)c1)c1ccccc1` (stereo not given), the TGI in [1] is 43.4 µM; in assay [2] it was over 100 µM; in [3], over 100 µM; in [4], over 100 µM; in assay [5], over 100 µM; in assay [6] it was over 100 µM. Also, the total growth inhibition concentration (TGI) in assay [7] is over 100 µM; in assay [8], over 100 µM; in assay [9], 56.4 µM; in assay [10] it was over 100 µM.
Turning to `CC(C)c1cc2c(cc1S(=O)(=O)O)[C@@]1(C)CCC[C@@](C)(C(=O)O)C1CC2` (stereo not given in full), the total growth inhibition concentration (TGI) in assay [1], in assay [2], in [3], in [4], in assay [5] and in [6] was over 100 µM throughout. Moreover, the concentration for total growth inhibition (TGI) in assay [7], in assay [8], in assay [9] and in assay [10] was over 100 µM throughout.
In the case of `Cc1oc2c(cc(O)c3cc(O)ccc32)c2cccc1-2`, the total growth inhibition concentration (TGI) in assay [1], in assay [2], in [3], in assay [4], in assay [5] and in assay [6] was over 100 µM throughout. For the same compound, the TGI in assay [7], in assay [8], in assay [9] and in assay [10] was over 100 µM throughout.
In the case of `CC1(C(=O)O)CCC2(C)CCC3(C)C(=CC(=O)C4C5(C)CCC(O)C(C)(C)C5CCC43C)C2C1` (stereo not given), the total growth inhibition concentration (TGI) was 51.3 µM in assay [1]; over 100 µM in assay [2]; over 100 µM in assay [3]; 99.1 µM in [4]; 57.1 µM in assay [5]; over 100 µM in assay [6]. In addition, the TGI in assay [7] was 44.8 µM; in assay [8], 77.3 µM; in assay [9] it was 63 µM; in assay [10], over 100 µM.
